From paper PMC12457114, “Comparison of the pharmacokinetic profiles of three triterpenoids after oral administration of a cucurbitacin tablet and nanosuspension by UHPLC-MS/MS” (Frontiers in Pharmacology, 2025)

How the values were obtained:
[1] = Stability of the analytes in rat plasma under different storage conditions; type: in vitro ADME; conditions: for Stability (RE%) Post-preparative / Stability (RE%) Short-term / Stability (RE%) Long-term / Stability (RE%) Freeze-thaw: rat plasma, n = 6; for Stability (RE%) Post-preparative / Stability in rat plasma (in words): 12 h at 4 °C post-sample preparation; for Stability (RE%) Short-term: ambient temperature (25 °C) for 4 h; for Stability (RE%) Long-term / Stability in rat plasma (in words): storage at −20 °C; for Stability (RE%) Freeze-thaw: three freeze-thaw cycles (−20 °C/room temperature); for Stability in rat plasma (in words): 25 °C for 4 h, three freeze-thaw cycles
Description: Table 5 outlines the stability of LQC, MQC, and HQC in the rat plasma under different storage conditions.

[2] = Pharmacokinetic study in rats after oral administration of CUT and MP-NPs, plasma by UHPLC-MS/MS; conditions: male, Sprague Dawley, in vivo, n = 6, mean ± SD
Procedure: An Agilent 6430 triple quadrupole mass spectrometer with an ESI source interface (Agilent Technologies, Santa Clara, CA, United States) was used in conjunction with an Agilent 1290 UHPLC system (Agilent Technologies). A Waters ACQUITY HSS T3 Column (1.8 μm, 2.1 × 100 mm) (Waters, Manchester, UK) was also used for the separations. Gradient elution was performed using water (A) and methanol (B) as mobile phases. The gradient elution procedure was used for 0.0–1.0 min, 80%–80% B; 1.0–1.5 min, 80%–90% B; 1.5–3.0 min, 90%–90% B; 3.0–3.2 min, 90%–80% B; and 3.2–4 min, 80%–80% B. The analytical temperature was 35 °C, and the flow rate was 0.3 mL/min. An injection of 5 μL volume was administered, after which the needle was washed. Positive ion-mode analysis was performed for the samples. The capillary voltage was set to 4500 V, source temperature to 100 °C, and the desolvation temperature to 350 °C ([Wang et al., 2014]). High-purity nitrogen was used as the nebulizing gas, and nitrogen was used as the drying gas at a flow rate of 11 L/min. The Agilent Mass Hunter workstation was used to gather the experimental data ([Wang Z et al., 2023]).
A total of 12 male Sprague Dawley (SD) rats (weight: 220 ± 20 g) were provided by the Animal Experiment Center of Heilongjiang University of Traditional Chinese Medicine (Production license number: SYXK (Hei) 2021-010). The Laboratory Animal Ethics Committee of Heilongjiang University of Traditional Chinese Medicine approved the study (Approval No.: 2024053114).
Animals were randomly assigned to the following two experimental groups (n = 6 per group): CUT and MP-NPs. Treatments were administered once daily for seven consecutive days, with the plasma sampling performed at predetermined time points after administration. Dosage was calculated based on human-equivalent doses converted to rat pharmacokinetic parameters using interspecies scaling factors. The human-rat dose conversion procedure was used to determine the dose of CUT per rat to be 0.03 g. The recommended daily dosage for humans is 6 tablets. The dose of MP-NPs per rat was determined to be 0.06 g per rat using the human-rat dose conversion formula, whereas the dose of P. Melo for human usage was 3 g, with reference to the Pharmacopoeia of the People’s Republic of China 2025.
At 0.083, 0.25, 0.50, 1, 1.5, 2, 2.5, 3, 4, 6, 8, 12, and 24 h following oral administration of CUT and MP-NPs, 0.25 mL of plasma samples were sampled by rapidly collecting and centrifuging at 4 °C, followed by freezing at −20 °C for further analysis ([Yu et al., 2023]).
Blank plasma sample (100 μL) was vortexed for 60 s after adding 100 μL of IS. To guarantee complete extraction, 3 mL of dichloromethane was then added to each sample, followed by vortexing for 120 s. Subsequently, the samples were centrifuged for 10 min at 4 °C and 3,500 rpm. At 40 °C, the […] organic phase was carefully moved into a sterile tube, dried off with a mild stream of nitrogen gas, and then reconstituted in 100 μL of the original mobile phase. Following a 120 s vortex, the extracts were filtered through a 0.22 μm Millipore filter before subjecting them to quantitative analyses by injecting 5 μL of them into the UHPLC-MS/MS apparatus.
The established UHPLC-MS/MS method was applied to simultaneously measure the plasma concentrations of the three analytes in rats following dose administration. Pharmacokinetic parameters have attracted attention in exploring drug absorption and distribution. These parameters include T 1/2, C max, T max, and AUC (Table 6). The pharmacokinetics of SD rats following oral administration of CUT and MP-NPs were investigated through UHPLC-MS/MS. The plasma concentrations of the three analytes were calculated. […] The MP-NPs group reached C max more rapidly than the CUT group.

[3] = HQC (spiked 300.2 CuB, 600.2 CuD, 300.8 CuE ng/mL)
[4] = LQC (spiked 5.272 CuB, 25.30 CuD, 5.257 CuE ng/mL)
[5] = MQC (spiked 150.1 CuB, 300.1 CuD, 150.4 CuE ng/mL)
[6] = CUT group, oral cucurbitacin tablet 0.03 g per rat
[7] = MP-NPs group, oral MP-NPs(PVP-K30) 0.06 g per rat

| SMILES | Stability (RE%) Post-preparative [1, 3] [%] | Stability (RE%) Short-term [1, 3] [%] | Stability (RE%) Long-term [1, 3] [%] | Stability (RE%) Freeze-thaw [1, 3] [%] | Stability (RE%) Post-preparative [1, 4] [%] | Stability (RE%) Short-term [1, 4] [%] | Stability (RE%) Long-term [1, 4] [%] | Stability (RE%) Freeze-thaw [1, 4] [%] | Stability (RE%) Post-preparative [1, 5] [%] | Stability (RE%) Short-term [1, 5] [%] | Stability (RE%) Long-term [1, 5] [%] | Stability (RE%) Freeze-thaw [1, 5] [%] | Stability in rat plasma (in words) [1] | AUC(0-inf) [2, 6] [ng·h/mL] | AUC(0-t) [2, 6] [ng·h/mL] | Cmax [2, 6] [ng/mL] | Tmax [2, 6] [h] | half-life [2, 6] [h] | AUC(0-inf) [2, 7] [ng·h/mL] | AUC(0-t) [2, 7] [ng·h/mL] | further results |
| --- | --- | --- | --- | --- | --- | --- | --- | --- | --- | --- | --- | --- | --- | --- | --- | --- | --- | --- | --- | --- | --- |
| CC(C)(O)/C=C/C(=O)[C@](C)(O)[C@H]1[C@H](O)C[C@@]2(C)[C@@H]3CC=C4[C@@H](C[C@H](O)C(=O)C4(C)C)[C@]3(C)C(=O)C[C@]12C [CuD, cucurbitacin D] | 7.032 | −5.861 | −2.272 | −7.765 | −3.854 | 4.262 | 5.336 | −3.242 | −8.805 | −4.154 | −5.533 | −8.420 | remained stable | 1160 | 1030 | 339 ± 24.4 | 1.83 ± 0.683 | 5.33 ± 0.991 | 1480 | 1260 | Cmax [2, 7]: 365 ± 69.9 ng/mL; Tmax [2, 7]: 1.75 ± 0.61 h; half-life [2, 7]: 6.97 ± 2.92 h |
| CC(=O)OC(C)(C)/C=C/C(=O)[C@](C)(O)[C@H]1[C@H](O)C[C@@]2(C)[C@@H]3CC=C4[C@@H](C=C(O)C(=O)C4(C)C)[C@]3(C)C(=O)C[C@]12C [CuE, cucurbitacin E] | −8.572 | −3.143 | −3.035 | −1.361 | 6.711 | 6.050 | 8.213 | 7.947 | −2.053 | −4.192 | 5.814 | 1.424 | remained stable | 682 ± 126 | 603 ± 125 | 166 ± 13.8 | 2.25 ± 0.521 | 5.99 ± 1.23 | 973 ± 269 | 752 ± 150 | Cmax [2, 7]: 236 ± 31.9 ng/mL; Tmax [2, 7]: 1.67 ± 0.612 h; half-life [2, 7]: 7.05 ± 2.7 h |
